pIC50: −log10 of the molar value. Values after ≈ are worked out from the molar mass of the structure shown.
Key:
Assay type in all cases: cell-based
Staphylococcus aureus = experiment: MIC micro broth dilution assay; details: for MIC: Staphylococcus aureus
In short: (§1)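 Multidrug-resistant clinical ESKAPE isolates were grown overnight (Gram-positives in TSB, Gram-negatives in LB), diluted 1:1,000 and exposed to decreasing compound concentrations in DMF (≤2.0% DMF).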

Klebsiella pneumoniae = experiment: MIC micro broth dilution assay; details: for MIC: Klebsiella pneumoniae
In short: as §1

Pseudomonas aeruginosa = experiment: MIC micro broth dilution assay; details: for MIC: Pseudomonas aeruginosa
Protocol: For this study we used a representative panel of multi-drug resistant clinical ESKAPE pathogen isolates (Supplemental Table S6).^42 43 3a, 44 45 Gram-positive organisms were grown in tryptic soy broth media (TSB), whilst Gram-negative organisms were grown in lysogeny Broth (LB), as described by us previously. ^43 MIC and MBC determination assays.
Broth cultures of ESKAPE strains were grown overnight before being diluted 1 in 1,000 in fresh media. Sterile 96-well plates were loaded with culture and compounds (in DMF) were added at decreasing concentrations to equal a total volume of 200 μl per well. Care was taken to not add more than 2.0% DMF to any well. Plates were then incubated at 37° C., and MICs determined after 24 hours by visual inspection for a lack of turbidity in wells. All assays were performed in triplicate with identical results obtained. For both the scaffold ranking and positional scanning samples, relative broad-spectrum activity was determined via stacked scores: […]

ESKAPE pathogens = experiment: MIC micro broth dilution assay, statements and stacked scores over all ESKAPE pathogens; details: letters E,S,K,A,P,E = ESKAPE pathogens, — = none
In short: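 Overnight cultures of multidrug-resistant clinical isolates, diluted 1 in 1,000 (Gram-positives in TSB, Gram-negatives in LB), were exposed to decreasing compound concentrations in DMF (≤2.0%) at 37° C. MIC was read visually as no turbidity after 24 hours, in triplicate. Broad-spectrum activity was ranked by stacked scores.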

human A549 cells = experiment: Cytotoxicity assay (MTT)
Protocol: Cytotoxicity assays were performed using human A549 cells (adenocarcinomic human alveolar epithelial cells), as described by us previously.^44 Briefly, cells were cultured in F-12K Nutrient mixture (Kaighn's Modification) media containing L-glutamine, supplemented with 10% fetal bovine serum and 1% penicillin-streptomycin for 3 days at 37° and 5% CO2. Cells were then diluted to 1.0×10^5 ml^−1 using F-12K supplemented media, and added to 96 well tissue culture plates at a volume of 100 μl. Plates were incubated for 24 hours at 37° C. and 5% CO2, allowing the cells to adhere to the plastic. […] Plates were then incubated for 48 hours at 37° C. and 5% CO2. After 48 hours the media was removed, and new media added containing MTT (3-(4, 5-dimethylthiazol-2-yl)-2, 5-diphenyltetrazolium bromide), followed by incubation for four hours at 37° C. and 5% CO2. After 4 h, 50 μl of media was removed, replaced with DMSO and incubated for ten minutes at 37° C. in order to solubilize any formazan produced. A Biotek plate reader was used to measure the absorbance of formazan production at […], and IC50 values were determined for each of the five compounds. Front runners were solvated in 45% w/v (2-hydroxypropyl)-β-cyclodextrin in water for these studies; which was also used alone as a negative control. IC50 values were determined for each compound by comparison to vehicle only controls, to assess toxicity to human cells.

**Q.** Which “stacked score activity, 100/MIC, S” value (Staphylococcus aureus; S. aureus) does the source give for `CCCCCCCN1C(=N)N(CCCC[C@H]2CNC(=N)N2CCc2cccc(C(F)(F)F)c2)C[C@@H]1CCCC` [Compound 1] here?
**A.** The value was 50.

**Q.** And the MIC (Staphylococcus aureus; S. aureus isolate 542)?
**A.** The MIC was 2 µM (≈ 1.1 µg/mL).

**Q.** What about the MIC (Staphylococcus aureus; S. aureus isolate 626) of the same molecule?
**A.** The MIC was 2 µM (≈ 1.1 µg/mL).

**Q.** And the MIC (Staphylococcus aureus; S. aureus isolate 635)?
**A.** Its MIC is 2 µM (≈ 1.1 µg/mL).

**Q.** What about the MIC (Staphylococcus aureus; S. aureus isolate 648) of the same molecule?
**A.** The MIC was 2 µM (≈ 1.1 µg/mL).

**Q.** And the MIC (Staphylococcus aureus; S. aureus isolate 690)?
**A.** The MIC was 2 µM (≈ 1.1 µg/mL).

**Q.** And the MIC (Staphylococcus aureus; S. aureus isolate 693)?
**A.** The MIC was 2 µM (≈ 1.1 µg/mL).

**Q.** What about the MIC (Staphylococcus aureus; S. aureus isolate 715) of the same molecule?
**A.** The MIC was 2 µM (≈ 1.1 µg/mL).

**Q.** What about the MIC (Staphylococcus aureus; S. aureus isolate 728) of the same molecule?
**A.** The MIC was 2 µM (≈ 1.1 µg/mL).

**Q.** And the MIC (Staphylococcus aureus; S. aureus isolate 834)?
**A.** Its MIC is 2 µM (≈ 1.1 µg/mL).

**Q.** And the MIC (Staphylococcus aureus; S. aureus isolate 1043)?
**A.** Its MIC is 2 µM (≈ 1.1 µg/mL).

**Q.** And the MIC (Staphylococcus aureus; S. aureus isolate 1049)?
**A.** The MIC was 2 µM (≈ 1.1 µg/mL).

**Q.** And the MIC (Staphylococcus aureus; purified compound, Table 1)?
**A.** Its MIC is 1.63 µM (≈ 0.898 µg/mL).

**Q.** What about the “stacked score activity, 100/MIC, K” value (Klebsiella pneumoniae; K. pneumoniae) of the same molecule?
**A.** Its value is 33.

**Q.** What about the MIC (Klebsiella pneumoniae; K. pneumoniae isolate 1408) of the same molecule?
**A.** The MIC was 2 µM (≈ 1.1 µg/mL).

**Q.** What about the MIC (Klebsiella pneumoniae; K. pneumoniae isolate 1409) of the same molecule?
**A.** The MIC was 3 µM (≈ 1.65 µg/mL).

**Q.** What about the MIC (Klebsiella pneumoniae; K. pneumoniae isolate 1410) of the same molecule?
**A.** The MIC was 3 µM (≈ 1.65 µg/mL).

**Q.** What about the MIC (Klebsiella pneumoniae; K. pneumoniae isolate 1411) of the same molecule?
**A.** Its MIC is 2 µM (≈ 1.1 µg/mL).

**Q.** And the MIC (Klebsiella pneumoniae; K. pneumoniae isolate 1412)?
**A.** Its MIC is 5 µM (≈ 2.75 µg/mL).

**Q.** What about the MIC (Klebsiella pneumoniae; K. pneumoniae isolate 1413) of the same molecule?
**A.** Its MIC is 3 µM (≈ 1.65 µg/mL).

**Q.** What about the MIC (Klebsiella pneumoniae; K. pneumoniae isolate 1433) of the same molecule?
**A.** The MIC was 2 µM (≈ 1.1 µg/mL).

**Q.** What about the MIC (Klebsiella pneumoniae; K. pneumoniae isolate 1434) of the same molecule?
**A.** The MIC was 5 µM (≈ 2.75 µg/mL).

**Q.** What about the MIC (Klebsiella pneumoniae; K. pneumoniae isolate 1440) of the same molecule?
**A.** Its MIC is 2 µM (≈ 1.1 µg/mL).

**Q.** What about the MIC (Klebsiella pneumoniae; K. pneumoniae isolate 1441) of the same molecule?
**A.** The MIC was 2 µM (≈ 1.1 µg/mL).

**Q.** And the MIC (Klebsiella pneumoniae; purified compound, Table 1)?
**A.** The MIC was 1.63 µM (≈ 0.898 µg/mL).

**Q.** And the “concentration inhibiting 90% of isolates” value (Klebsiella pneumoniae; panel of K. pneumoniae clinical isolates)?
**A.** The value was 10 µM.

**Q.** What about the MIC (Pseudomonas aeruginosa; P. aeruginosa isolate 1414) of the same molecule?
**A.** The MIC was 5 µM (≈ 2.75 µg/mL).

**Q.** What about the MIC (Pseudomonas aeruginosa; P. aeruginosa isolate 1415) of the same molecule?
**A.** The MIC was 5 µM (≈ 2.75 µg/mL).

**Q.** And the MIC (Pseudomonas aeruginosa; P. aeruginosa isolate 1416)?
**A.** The MIC was 5 µM (≈ 2.75 µg/mL).

**Q.** What about the MIC (Pseudomonas aeruginosa; P. aeruginosa isolate 1417) of the same molecule?
**A.** The MIC was 5 µM (≈ 2.75 µg/mL).

**Q.** And the MIC (Pseudomonas aeruginosa; P. aeruginosa isolate 1418)?
**A.** The MIC was 7 µM (≈ 3.86 µg/mL).

**Q.** What about the MIC (Pseudomonas aeruginosa; P. aeruginosa isolate 1419) of the same molecule?
**A.** The MIC was 5 µM (≈ 2.75 µg/mL).

**Q.** And the MIC (Pseudomonas aeruginosa; P. aeruginosa isolate 1420)?
**A.** Its MIC is 5 µM (≈ 2.75 µg/mL).

**Q.** And the MIC (Pseudomonas aeruginosa; P. aeruginosa isolate 1421)?
**A.** The MIC was 5 µM (≈ 2.75 µg/mL).

**Q.** And the MIC (Pseudomonas aeruginosa; P. aeruginosa isolate 1422)?
**A.** The MIC was 5 µM (≈ 2.75 µg/mL).

**Q.** What about the MIC (Pseudomonas aeruginosa; P. aeruginosa isolate 1423) of the same molecule?
**A.** Its MIC is 2 µM (≈ 1.1 µg/mL).

**Q.** What about the MIC (Pseudomonas aeruginosa; purified compound, Table 1) of the same molecule?
**A.** Its MIC is 1.63 µM (≈ 0.898 µg/mL).

**Q.** And the “concentration inhibiting 90% of isolates” value (Pseudomonas aeruginosa; panel of P. aeruginosa clinical isolates)?
**A.** Its value is 10 µM.

**Q.** What about the “pathogens against which the compound showed activity at 5 ug/ml” value (ESKAPE pathogens; dose 5 ug/ml) of the same molecule?
**A.** Its value is “ESKAPE”.

**Q.** What about the “pathogens against which the compound showed activity at 10 ug/ml” value (ESKAPE pathogens; dose 10 ug/ml) of the same molecule?
**A.** The value was “ESKAPE”.

**Q.** And the “pathogens against which the compound showed activity at 25 ug/ml” value (ESKAPE pathogens; dose 25 ug/ml)?
**A.** Its value is “ESKAPE”.

**Q.** And the “A549 cell recovery compared to vehicle only controls” value (human A549 cells; 225 μM (highest concentration tested))?
**A.** The value was “around 40%”.

**Q.** And the pIC50 (human A549 cells; Homo sapiens, A549, MTT, 48 hours)?
**A.** The pIC50 was 3.79.

— patent US20170065564A1, “BIS-CYCLIC GUANIDINE COMPOUND COMPOSITIONS, METHODS OF USE AND TREATMENT THEREOF” (University of South Florida, priority 2014, published 2017)
